Results published in US20100203110A1, “Therapeutics for Cancer Using 3-Bromopyruvate and Other Selective Inhibitors of ATP Production” (The Johns Hopkins University, priority 2006, published 2010).

Assays:
[1] = test system: VX2; assay: Cell viability, VX2; assay type: cell-based, rabbit; conditions: 1 mM for 3 hour
Experimental: (§1) Caspase-3 activity and reduced cell viability was also measured in cell lines (HepG2, THLE-2, and VX2 cell lines) following 3-bromopyruvate treatment (1 mM for 3 hour) (FIG. 6A). Caspase-3 activity increased in each cell line following treatment and cell viability decreased following treatment. An increase in caspase-3 activity indicated the mechanism of cell death is apoptotic. FIGS. 6 B and C show cell viability is reduced in each cell line with increasing 3-bromopyruvate concentration after 1 and 3 hours of treatment.

[2] = Biodistribution of 14C radiolabeled 3-bromopyruvate in rabbit Vx-2 model; assay type: in vivo
Experimental: In order to properly design a treatment protocol that would ensure survival of the animal with the least amount of toxicity, the biodistribution of 3-bromopyruvate given either IV or intraarterially over a period of 24 hours was investigated. For this series of experiments, radioactive 3-bromopyruvate using ^14C was synthesized. The use of ^14C labeled 3-bromopyruvate would allow monitoring in each tissue.
36 rabbits were divided into two groups of 18 animals each. Group 1 was treated intraarterially and group 2 received intravenous injection of 3-bromopyruvate. Each group was further subdivided into six groups of three rabbits each, corresponding to various time points of sacrifice (0, 30, 60, 120 and 240 minutes and 24 hours). All rabbits were fasted for 24 hours prior to treatment. The rabbits treated intraarterially received a one-hour infusion of 25 cc of 1.75 mM 3-bromopyruvate in PBS and those treated intravenously received a one-hour infusion of 25 cc of 20 mM 3-bromopyruvate in PBS. The difference in doses of 3-bromopyruvate between intraarterial and intravenous administration is based on the optimal dose for each method of administration. Radiolabeled 3-bromopyruvate (200 μCi, 100 μL) was added to each 25 ml treatment solution. One hour before sacrifice, 1 ml of 18FDG (1 mCi) was injected via an ear vein to monitor glucose uptake.
The purpose of the injection of FDG was to correlate the effects of 3-bromopyruvate with glucose uptake. […] This finding, also present when the drug was given intraarterially, was more pronounced and the accumulation of 3-bromopyruvate is prolonged compared to IV administration.

[3] = test system: VX2 tumor; assay: Longitudinal survival studies in the VX2 rabbit model; assay type: in vivo
From the text: In a longitudinal study to investigate the effect of 3-bromopyruvate treatment in the VX2 rabbit model, it was observed that although the treated rabbits lived longer than the untreated ones (statistically significant), the treated rabbits were not cured of their tumors and died within weeks of treatment of massive tumor growth. The extremely aggressive nature of the VX2 tumor was not stopped by the treatment and the tumor re-grew despite the high initial percentage of cancer cell death. Further studies were thus needed to determine the optimal dose and method of infusion of 3-bromopyruvate to attain significant long-term survival, complete eradication of the tumor.
VX2 tumors are extremely aggressive and are rendered more aggressive and difficult to treat by the passage of this tumor from generation to generation (>100) in the thigh of a rabbit making each generation more virulent than the last. […] As described herein continuous intraarterial infusion of 1.7 mM 3-bromopyruvate is an effective and potent therapy for treating liver cancer.

[4] = test system: HepG2; assay: Cell viability, HepG2; assay type: cell-based, human; conditions: 1 mM for 3 hour
Experimental: as §1

[5] = test system: back adipose tissue (BAT); assay: FDG uptake after IP injection in non-tumor bearing rats; assay type: in vivo, rat
From the text: (§2) After having established the anti-glycolytic effect of 3-bromopyruvate in vitro, we designed a series of experiments to confirm this property in vivo. For this purpose, two different animal models, the Lewis rat mammary tumor model and the orthotopic VX2 rabbit liver cancer model were used. Since glucose uptake can be monitored using fluorine-labeled deoxyglucose (FDG), potential sites of decreased FDG uptake as a result of 3-bromopyruvate activity could be identified. The effects of intraperitonealy (IP) injected 3-bromopyruvate in non-tumor bearing rats were compared to those in tumor bearing rats. The tumors were derived from the rat mammary tumor (RMT) cell line and transplanted into the back adipose tissue of the rat and allowed to grow for 10 days. After having determined the maximum tolerated dose, all animals received two bolus doses (one hour apart) of 3-bromopyruvate injected IP. The FDG was injected 30 minutes after the first injection of 3-bromopyruvate and all animals were sacrificed 60 minutes after the FDG was injected. The tumors and all major organs were removed, weighed and analyzed in a gamma counter. […]

[6] = test system: HepG2; assay: Caspase-3 activity, HepG2; assay type: cell-based, human; conditions: 1 mM for 3 hour
Experimental: as §1

[7] = Acute toxicity study, single IV dose in rabbits; assay type: in vivo, rabbit
Experimental: In addition, an acute toxicity study was performed to determine the effects of 3-bromopyruvate administered IV. Based on the data acquired in rats, rabbits (2 animals per group followed for 1 week) were given 25 ml of 15, 20, and 25 mM 3-bromopyruvate as a single IV dose (i.e., using dose identified for rats).

[8] = test system: rat mammary tumor (RMT); assay: FDG uptake after IP injection in tumor bearing rats; assay type: in vivo
From the text: as §2

[9] = test system: VX2; assay: Caspase-3 activity, VX2; assay type: cell-based, rabbit; conditions: 1 mM for 3 hour
Experimental: as §1

[10] = test system: "metastatic" lung tumors; assay: Systemic delivery via marginal ear vein, metastatic lung nodules; assay type: in vivo, rabbit
Experimental: FIG. 4 depicts the effect of systemic delivery of 3-BrPA on animals harboring the liver implanted VX2 tumor. FIG. 4A depicts histological sections of 9 different tissues isolated 4 days after injecting 3-BrPA (25 ml 0.5 mM) into a marginal ear vein. No damage to these tissues is evident. (Magnification=120×). FIG. 4B depicts a section from a liver implanted VX2 tumor isolated from a control animal not receiving 3-BrPA. […] Cells in both appear completely viable. (Magnification 120×) FIG. 4D depicts a section of lung tissue isolated from an animal in which the liver harbored a VX2 tumor after 14 days of growth. […] (Animals evaluated=4).
Finally, it was important to examine the effect of 3-BrPA when delivered systemically (i.e., via the general circulation) on both animal toxicity and its capacity to damage liver implanted tumors.

[11] = IA one-hour infusion 25 cc 1.75 mM
[12] = two IP bolus doses one hour apart

## O=C(O)C(=O)CBr [3-bromopyruvate]
[1]
  cell viability: decreased
[2]; 14C label
  levels in the brain: virtually undetectable
[2]; [11]
  accumulation in other organs including brain, lungs and heart: no accumulation
  retention in the tumor: stayed within the tumor up to 24 hours
[2]; IA, lesser extent through the kidneys
  clearance route: mostly through the liver
[2]; IV one-hour infusion 25 cc 20 mM
  uptake by organs (heart, lung and brain): no significant uptake
[2]; after IV injection
  time of maximal tumor uptake: 4 h
[2]; rabbit, in vivo
  blood brain barrier penetration: does not cross the blood brain barrier
  inhibition of FDG (glucose) uptake in organs: no inhibition
  tissue damage at histopathologic analysis: none of the organs showed any associated tissue damage
[3]; VX2 rabbit model, not cured, tumor re-grew
  survival versus untreated rabbits: lived longer
[3]; animals with 100% tumor kill
  delay of tumor progression versus saline (IA) controls: 75%
[4]
  cell viability: decreased
[5]; two IP bolus doses
  FDG uptake in other organs: affected no other organs
[5]; [12]
  decrease in FDG uptake (percentage of injected dose per gram of tissue) in back adipose tissue: 10 fold
[6]
  Caspase-3 activity: increased
[7]; 20 mM single IV dose
  organ toxicity: no evidence of any organ toxicity
[7]; 25 ml single IV dose, 1 week
  therapeutic dose, intravenous: 20 mM
[7]; single IV dose
  therapeutic dose, intravenous: 16.8 mg/kg
[8]; two IP bolus doses
  FDG uptake in all other organs: unaffected
[8]; [12]
  decrease in FDG uptake in the tumor: 50%
[9]
  Caspase-3 activity: increased
[10]; 25 ml 0.5 mM, 4 days
  metastatic lung tumors with a diameter greater than 1 mm: almost complete disappearance
[10]; of >27 tumors counted, untreated 5
  number of metastatic lung tumors greater than 1 mm in diameter: none
